# Results reported in patent publication US12559474B2, “Triazine derivatives having virus replication inhibitory activity and pharmaceutical composition comprising the same” (priority 2021, dated 2026).
# Like-named read-outs stand apart in the source and are kept apart here.
# Assays:
# SARS-CoV-2 3CL protease = SARS-CoV-2 3CL protease (Severe acute respiratory syndrome coronavirus 2, UniProt P0DTD1); assay: biochemical; conditions: 50% SARS-CoV-2 3CL protease inhibitory concentration, read-out: IC50
# SARS-CoV-2 = assay: microbe, parasite or virus in culture; type: cell-based; conditions: Severe acute respiratory syndrome coronavirus 2, VeroE6/TMPRSS2, 72 h, 50% SARS-CoV-2 infected cell death inhibitory concentration, VeroE6/TMPRSS2 cells, 3 days culture
Compound,IC50 (SARS-CoV-2 3CL protease; given as class symbols),EC50 (SARS-CoV-2; class symbols),IC50 (SARS-CoV-2 3CL protease; RapidFire MS),EC50 (SARS-CoV-2; CellTiter-Glo 2.0)
Cn1cc2cc(Nc3nc(=O)n(-c4cnc5ccccn45)c(=O)n3Cc3cc(Cl)c(F)cc3F)c(Cl)cc2n1 [II-0487],< 0.1 µM,1 to 10 µM,,
Cn1cc2cc(Nc3nc(=O)n(-c4cncc(C#N)c4)c(=O)n3Cc3cc(F)c(F)c(Cl)c3)c(Cl)cc2n1 [II-0489],< 0.1 µM,1 to 10 µM,,
Cn1cc2cc(Nc3nc(=O)n(-c4cnc5ccccn45)c(=O)n3Cc3cc(F)c(F)c(Cl)c3)c(Cl)cc2n1 [II-0490],,,0.083 µM,8.7 µM
Cn1cc2cc(Nc3nc(=O)n(-c4cncc(C#N)c4)c(=O)n3Cc3cc(F)c(F)c(F)c3)c(Cl)cc2n1 [II-0491],< 0.1 µM,1 to 10 µM,,
COc1ccc(Nc2nc(=O)n(-c3cncc(C)c3)c(=O)n2-c2cccc(Cl)c2)cc1 [II-0492],,< 1 µM,1 µM,
CCn1cc2cc(Nc3nc(=O)n(-c4cncc(C)c4)c(=O)n3Cc3cc(C#N)ccc3C)c(Cl)cc2n1 [II-0493],,,0.0013 µM,0.068 µM
CCn1cc2cc(Nc3nc(=O)n(-c4cncc(C)c4)c(=O)n3Cc3cc(Cl)c(F)cn3)c(Cl)cc2n1 [II-0494],,,0.024 µM,0.878 µM
COc1cncc(-n2c(=O)nc(Nc3cc4cn(C)nc4cc3Cl)n(Cc3cc(F)c(F)c(F)c3)c2=O)c1 [II-0495],< 0.1 µM,< 1 µM,,
CNc1nc2ccc(Nc3nc(=O)n(-c4cncc(C)c4)c(=O)n3Cc3cc(C#N)ccc3C)cc2s1 [II-0496],< 0.1 µM,< 1 µM,,
CNc1nc2ccc(Nc3nc(=O)n(-c4cncc(C)c4)c(=O)n3Cc3cc(C#N)ccc3Cl)cc2s1 [II-0497],< 0.1 µM,< 1 µM,,
Cc1cncc(-n2c(=O)nc(Nc3cc4sc(NCC(F)F)nc4cc3Cl)n(Cc3cc(F)c(F)c(C#N)c3)c2=O)c1 [II-0498],< 0.1 µM,1 to 10 µM,,
Cn1cc2cc(Nc3nc(=O)n(-c4cncc5c4COC5)c(=O)n3Cc3cc(Cl)c(F)cc3F)c(Cl)cc2n1 [II-0499],,,0.012 µM,0.68 µM
Cn1cnc(Cn2c(=O)nc(Nc3cc4sc(NCC(F)F)nc4cc3Cl)n(Cc3cc(F)c(F)cc3F)c2=O)n1 [II-0500],< 0.1 µM,1 to 10 µM,,
CNc1nc2cc(F)c(Nc3nc(=O)n(-c4cncc(C)c4)c(=O)n3Cc3cc(F)c(F)cc3F)cc2s1 [II-0501],< 0.1 µM,< 1 µM,,
Cn1cc2cc(Nc3nc(=O)n(-c4cncc5c4COC5)c(=O)n3Cc3cc(F)c(F)c(F)c3)c(Cl)cc2n1 [II-0503],< 0.1 µM,1 to 10 µM,,
Cc1cncc(-n2c(=O)nc(Nc3cc4cn(C)nc4cc3F)n(Cc3cc(C#N)c(F)cc3C)c2=O)c1 [II-0504],< 0.1 µM,< 1 µM,,
O=c1[nH]cccc1Cn1c(=O)nc(Nc2cc3cn(CC(F)(F)F)nc3cc2Cl)n(Cc2cc(F)c(F)c(F)c2)c1=O [II-0505],< 0.1 µM,1 to 10 µM,,
Cc1cncc(-n2c(=O)nc(Nc3cc4cn(CC(F)F)nc4cc3F)n(Cc3cc(F)c(F)c(C#N)c3)c2=O)c1 [II-0506],< 0.1 µM,< 1 µM,,
N#CCn1cc2cc(Nc3nc(=O)n(Cc4ccc[nH]c4=O)c(=O)n3Cc3cc(F)c(F)c(F)c3)c(Cl)cc2n1 [II-0507],< 0.1 µM,1 to 10 µM,,
Cn1cnc(Cn2c(=O)nc(Nc3cc4oc(N)nc4cc3Cl)n(Cc3cc(F)c(F)c(Cl)c3)c2=O)n1 [II-0508],< 0.1 µM,1 to 10 µM,,

Compound,IC50 (SARS-CoV-2 3CL protease; given as class symbols),EC50 (SARS-CoV-2; class symbols),IC50 (SARS-CoV-2 3CL protease; RapidFire MS),EC50 (SARS-CoV-2; CellTiter-Glo 2.0)
CNC(=O)Cn1cc2cc(Nc3nc(=O)n(-c4cncc5ccccc45)c(=O)n3Cc3cc(F)c(F)c(F)c3)c(Cl)cc2n1 [II-0509],< 0.1 µM,1 to 10 µM,,
CNc1nc2cc(Cl)c(Nc3nc(=O)n(-c4cncc(C)c4)c(=O)n3Cc3ccc(F)c(C#N)c3)cc2o1 [II-0512],< 0.1 µM,1 to 10 µM,,
N#Cc1cc(Cn2c(Nc3cc4cn(CC(F)F)nc4cc3F)nc(=O)n(-c3cncc(Cl)c3)c2=O)ccc1F [II-0513],< 0.1 µM,< 1 µM,,
Cn1cnc(Cn2c(=O)nc(Nc3cc4c(C(F)F)n(C)nc4cc3Cl)n(Cc3cc(F)c(F)cc3F)c2=O)n1 [II-0514],< 0.1 µM,1 to 10 µM,,
Cn1cnc(Cn2c(=O)nc(Nc3cc4cn(C)nc4cc3F)n(Cc3cc(Cl)c(F)cc3F)c2=O)n1 [II-0515],< 0.1 µM,1 to 10 µM,,
CNc1nc2cc(Cl)c(Nc3nc(=O)n(-c4cncc(Cl)c4)c(=O)n3Cc3ccc(F)c(C#N)c3)cc2o1 [II-0516],< 0.1 µM,1 to 10 µM,,
CNc1nc2cc(Cl)c(Nc3nc(=O)n(Cc4ncn(C)n4)c(=O)n3Cc3cc(F)c(F)cc3F)cc2o1 [II-0517],< 0.1 µM,1 to 10 µM,,
Cc1cncc(-n2c(=O)nc(Nc3cc4cn(CC(F)F)nc4cc3F)n(Cc3cc(F)c(F)c(F)c3)c2=O)c1 [II-0518],< 0.1 µM,1 to 10 µM,,
Cn1cnc(Cn2c(=O)nc(Nc3cc4cn(C)nc4cc3F)n(Cc3cc(F)c(F)cc3F)c2=O)n1 [II-0519],< 0.1 µM,1 to 10 µM,,
COc1cc(F)c(F)cc1Cn1c(Nc2cc3cn(C)nc3cc2Cl)nc(=O)n(-c2cncc(C)c2)c1=O [II-0520],< 0.1 µM,1 to 10 µM,,
Cc1cncc(-n2c(=O)nc(Nc3ccc4nn(CC(F)F)cc4c3)n(Cc3cc(C#N)ccc3C)c2=O)c1 [II-0521],,,0.0034 µM,0.22 µM
Cn1cnc(Cn2c(=O)nc(Nc3cc4c(cc3Cl)nc3n4CCN3)n(Cc3cc(Cl)c(F)cc3F)c2=O)n1 [II-0522],,,0.0041 µM,15 µM
Cn1cc2cc(Nc3nc(=O)n(-c4cncc(Cl)c4)c(=O)n3Cc3cc(C#N)ccc3Cl)ccc2n1 [II-0523],,,0.011 µM,0.24 µM
Cc1cncc(-n2c(=O)nc(Nc3cc4sc(NCC(F)F)nc4cc3Cl)n(Cc3ccc(F)c(C#N)c3)c2=O)c1 [II-0524],< 0.1 µM,1 to 10 µM,,
Cn1cc2cc(Nc3nc(=O)n(-c4cncc(Cl)c4)c(=O)n3Cc3ccc(F)c(C#N)c3)c(F)cc2n1 [II-0525],,,0.016 µM,0.533 µM
Cc1cncc(-n2c(=O)nc(Nc3cc4sc(NCC(F)(F)F)nc4cc3Cl)n(Cc3ccc(F)c(C#N)c3)c2=O)c1 [II-0526],< 0.1 µM,1 to 10 µM,,
Cn1cnc(Cn2c(=O)nc(Nc3cc4cn(C5CC5)nc4cc3Cl)n(Cc3cc(F)c(F)cc3F)c2=O)n1 [II-0527],< 0.1 µM,< 1 µM,,
Cc1cncc(-n2c(=O)nc(Nc3cc4cn(C)nc4cc3F)n(Cc3cc(F)c(F)cc3F)c2=O)c1 [II-0528],< 0.1 µM,< 1 µM,,
Cn1cnc(Cn2c(=O)nc(Nc3cc4sc(N)nc4cc3Cl)n(Cc3cc(Cl)c(F)cc3F)c2=O)n1 [II-0529],< 0.1 µM,< 1 µM,,
Cc1cncc(-n2c(=O)nc(Nc3cc4cn(CC(F)F)nc4cc3Cl)n(Cc3cc(C#N)c(F)cn3)c2=O)c1 [II-0533],< 0.1 µM,1 to 10 µM,,

Compound,IC50 (SARS-CoV-2 3CL protease; given as class symbols),EC50 (SARS-CoV-2; class symbols),IC50 (SARS-CoV-2 3CL protease; RapidFire MS),EC50 (SARS-CoV-2; CellTiter-Glo 2.0)
CNc1nc2cc(Cl)c(Nc3nc(=O)n(-c4cncc(C)c4)c(=O)n3Cc3cc(C#N)c(F)cn3)cc2s1 [II-0534],< 0.1 µM,1 to 10 µM,,
Cc1cncc(-n2c(=O)nc(Nc3cc4cn(C)nc4cc3Cl)n(Cc3cc(C#N)c(F)cn3)c2=O)c1 [II-0535],< 0.1 µM,< 1 µM,,
Cn1cnc(Cn2c(=O)nc(Nc3cc4sc(N)nc4cc3Cl)n(Cc3cc(F)c(F)cc3F)c2=O)n1 [II-0536],< 0.1 µM,1 to 10 µM,,
Cc1cncc(-n2c(=O)nc(Nc3cc4cn(C)nc4cc3Cl)n(Cc3cc(C#N)cnc3C)c2=O)c1 [II-0537],< 0.1 µM,1 to 10 µM,,
Cn1cc2cc(Nc3nc(=O)n(-c4cncc(Cl)c4)c(=O)n3Cc3cc(C#N)c(F)cn3)c(Cl)cc2n1 [II-0538],< 0.1 µM,1 to 10 µM,,
Cc1cncc(-n2c(=O)nc(Nc3cc4cn(C)nc4cc3Cl)n(Cc3ccc(F)c(C#N)n3)c2=O)c1 [II-0539],< 0.1 µM,1 to 10 µM,,
Cc1cncc(-n2c(=O)nc(Nc3cc4cn(C)nc4cc3Cl)n(Cc3cc(Cl)c(F)cn3)c2=O)c1 [II-0541],< 0.1 µM,< 1 µM,,
Cc1ccc(C#N)cc1Cn1c(Nc2cc3cn(C)nc3cc2Cl)nc(=O)n(-c2cncc(Cl)c2)c1=O [II-0543],,,0.0028 µM,0.087 µM
Cc1cncc(-n2c(=O)nc(Nc3cc4cn(C(C)C)nc4cc3Cl)n(Cc3ccc(F)c(C#N)c3)c2=O)c1 [II-0544],< 0.1 µM,< 1 µM,,
CNc1nc2cc(Cl)c(Nc3nc(=O)n(-c4cncc(C)c4)c(=O)n3Cc3cc(C#N)ccc3Cl)cc2o1 [II-0545],,,0.0086 µM,0.75 µM
CNc1nc2cc(Cl)c(Nc3nc(=O)n(-c4cncc(Cl)c4)c(=O)n3Cc3cc(C#N)ccc3C)cc2o1 [II-0546],< 0.1 µM,< 1 µM,,
CCn1cc2cc(Nc3nc(=O)n(Cc4ncn(C)n4)c(=O)n3Cc3cc(F)c(F)cc3F)c(Cl)cc2n1 [II-0548],,,0.014 µM,0.533 µM
Cn1cnc(Cn2c(=O)nc(N3CCc4ccccc4CC3)n(Cc3cc(F)c(F)c(F)c3)c2=O)n1 [II-0550],,,1.1 µM,6.42 µM
Cc1cncc(-n2c(=O)nc(Nc3cc4cn(C)nc4cc3Cl)n(Cc3cc(F)c(F)cc3OCC3CCC3)c2=O)c1 [II-0551],< 0.1 µM,< 1 µM,,
CC(=O)Nc1nc2cc(Cl)c(Nc3nc(=O)n(Cc4ncn(C)n4)c(=O)n3Cc3cc(Cl)c(F)cc3F)cc2s1 [II-0554],< 0.1 µM,1 to 10 µM,,
CC(=O)Nc1nc2cc(Cl)c(Nc3nc(=O)n(-c4cncc(C)c4)c(=O)n3Cc3ccc(F)c(C#N)c3)cc2s1 [II-0555],< 0.1 µM,1 to 10 µM,,
CNC(=O)Cn1cc2cc(Nc3nc(=O)n(-c4cncc5ccccc45)c(=O)n3Cc3cc(F)c(F)cc3F)c(Cl)cc2n1 [II-0556],< 0.1 µM,1 to 10 µM,,
CCn1cc2cc(Nc3nc(=O)n(-c4cncc(Cl)c4)c(=O)n3Cc3cc(C#N)c(F)cc3C)ccc2n1 [II-0559],,,0.0064 µM,0.246 µM
